The record followed here is ChEMBL document CHEMBL4308826, “Small Molecule Allosteric Modulators of G-Protein-Coupled Receptors: Drug-Target Interactions” (J Med Chem, 2018).

Assay [1] has as its target T1, Proteinase-activated receptor 1 (Homo sapiens, UniProt P25116).
T1 sequence (P25116 whole entry): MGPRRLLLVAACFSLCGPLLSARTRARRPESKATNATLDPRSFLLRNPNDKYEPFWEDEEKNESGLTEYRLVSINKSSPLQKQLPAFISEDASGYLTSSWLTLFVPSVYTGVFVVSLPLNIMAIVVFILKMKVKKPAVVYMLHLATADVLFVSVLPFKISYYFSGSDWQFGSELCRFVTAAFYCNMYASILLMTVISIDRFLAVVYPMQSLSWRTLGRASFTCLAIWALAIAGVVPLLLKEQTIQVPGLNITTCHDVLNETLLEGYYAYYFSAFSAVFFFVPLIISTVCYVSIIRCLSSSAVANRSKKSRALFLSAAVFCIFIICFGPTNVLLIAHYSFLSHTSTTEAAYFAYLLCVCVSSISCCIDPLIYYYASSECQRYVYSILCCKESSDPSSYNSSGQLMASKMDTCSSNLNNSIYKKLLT
The assay can be described thus: Antagonist activity at human PAR1.

Assay [2] concerns the target T2, Proteinase-activated receptor 4 (Homo sapiens, UniProt Q96RI0).
T2 sequence (Q96RI0 whole entry): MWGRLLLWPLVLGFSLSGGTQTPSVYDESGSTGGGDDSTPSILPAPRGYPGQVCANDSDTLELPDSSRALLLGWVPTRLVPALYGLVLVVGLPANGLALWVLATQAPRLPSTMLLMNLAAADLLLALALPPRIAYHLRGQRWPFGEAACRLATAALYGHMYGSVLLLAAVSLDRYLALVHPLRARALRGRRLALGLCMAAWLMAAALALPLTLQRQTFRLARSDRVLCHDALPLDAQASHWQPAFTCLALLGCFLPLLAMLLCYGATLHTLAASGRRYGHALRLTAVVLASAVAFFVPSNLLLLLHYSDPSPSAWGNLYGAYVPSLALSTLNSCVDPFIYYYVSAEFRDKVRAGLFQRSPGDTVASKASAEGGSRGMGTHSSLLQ
Kind of assay: Antagonist activity at human PAR4.

The target of assay [3] is T3, Proteinase-activated receptor 2 (Homo sapiens, UniProt P55085).
T3 sequence (P55085 whole entry): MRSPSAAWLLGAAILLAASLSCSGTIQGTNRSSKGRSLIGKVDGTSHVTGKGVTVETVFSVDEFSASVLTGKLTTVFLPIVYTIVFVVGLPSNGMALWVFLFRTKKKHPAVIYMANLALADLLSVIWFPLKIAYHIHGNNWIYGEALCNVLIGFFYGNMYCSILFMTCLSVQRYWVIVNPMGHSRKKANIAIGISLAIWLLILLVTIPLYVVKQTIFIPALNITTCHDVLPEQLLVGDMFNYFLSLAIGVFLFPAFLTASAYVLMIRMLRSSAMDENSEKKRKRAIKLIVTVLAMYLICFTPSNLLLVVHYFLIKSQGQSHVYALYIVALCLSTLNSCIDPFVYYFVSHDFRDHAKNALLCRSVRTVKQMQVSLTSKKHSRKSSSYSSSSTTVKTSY
Kind of assay: Antagonist activity at human PAR2.

Where only a bound is given, the exact number is not on record here.

On to `C[C@@H](C1CCCCC1)n1c(-c2cc3c(cc2Br)OCO3)nc2cc(C(=O)Nc3ccc(C#N)cc3)ccc21`, for which the half-maximal inhibitory concentration (IC50) (as a rule, the midpoint of a concentration-inhibition curve) is more than 50000 nM in assay [1], 380 nM in assay [2] and less than 2.5 nM in assay [3].
